Literature values, collected in patent publication US8648203B2 (priority 2005, dated 2014).

Assays:
mites = conditions: repeated treatments in the field
[1] = system: potato Phycophthora infestans; conditions: field tests

SMILES: O=[N+]([O-])c1cc(C(F)(F)F)c(Cl)c([N+](=O)[O-])c1Nc1ncc(C(F)(F)F)cc1Cl [fluazinam, 3-chloro-N-(3-chloro-5-trifluoromethyl-2-pyridyl)-α,α,α-trifluoro-2,6-dinitro-p-toluidine]
- population of mites (mites): significantly reduce the population of mites
- activity against potato Phycophthora infestans [1]: excellent activity
